Values of other authors in patent publication EP0435915B1, “COMPOSITIONS FOR THE TREATMENT OF LEISHMANIASIS” (priority 1988, dated 1990).

Tested on: leishmaniasis lesions
Conditions: reported by GB-A-2117237; result in words

For `NC[C@@H]1O[C@H](O[C@H]2[C@@H](O)[C@H](O[C@@H]3[C@@H](O)[C@H](N)C[C@H](N)[C@H]3O[C@H]3O[C@H](CO)[C@@H](O)[C@H](O)[C@H]3N)O[C@@H]2CO)[C@H](N)[C@@H](O)[C@@H]1O` [paromomycin, 0-2,6-diamino-2,6-dideoxy-β-L-idopyranosyl-(1→3)-0-β-D-ribofuranosyl-(1→5)-0-[2-amino-2-deoxy-α-D-glucopyranosyl-(1→4)]-2-deoxystreptamine], the “effect when applied topically to leishmaniasis lesions” value is given as “ineffective”.
